Data set [1] has as its system Enterococcus faecium ATCC 19434. Format: cell-based.
The test system of data set [2] is Pseudomonas aeruginosa ATCC 27853. Format: cell-based.
Another data set has as its system rabbit red blood cells. Description: Hemolytic activity. Format: cell-based. To be noted: for Hemolysis: relative to Triton X-100. The method, then:
Hemolytic activity was evaluated using defibrinated rabbit blood in a 96-well plate as described previously. A nonionic surfactant Triton X-100, which is capable of lysing red blood cells (RBCs), was used at 0.1% as a positive control. Briefly, rabbit blood (Hardy Diagnostics, Santa Maria, Calif.) was diluted with phosphate buffered saline (PBS; pH 7.2) at a 1:19 ratio (v/v) and free hemoglobin was removed by washing RBCs and centrifugation four times at 1,000×g at 4° C. for 5 min. Aliquots (50 μL) of washed RBCs were incubated with 150 μL two-fold dilutions of paenipeptin analogues at final concentrations of 16-128 μg/mL at 37° C. for 30 min in a microtiter plate (NBS, Corning Inc.). After incubation, treated RBCs were gently mixed by repeated pipetting. Aliquots (20 μL) of the cell suspension were mixed with 200 μL PBS in a new 96-well plate and centrifuged at 2,204×g for 10 min. The supernatant was transferred to a new 96-well plate for absorbance measurement at 415 nm using a Cell Imaging Multimode Reader (Cytation 3, BioTek; Winooski, Vt.). The percent hemolysis observed after exposure to each paenipeptin analogue was calculated relative to Triton X-100.

The subject of the next data set is P. aeruginosa ATCC 27853. The format is cell-based, Pseudomonas aeruginosa. An excerpt: (§1) The surviving cells from each antimicrobial concentration with no visible growth were enumerated by plating on tryptic soy agar (TSA). MBC was defined as the lowest concentration of the antimicrobial agent that led to at least a 99.9% reduction in the number of viable bacterial cells relative to the initial inoculum. There were three independent experiments with one replicate in each experiment.

Data set [3] deals with Staphylococcus aureus ATCC 29213. Format: cell-based.
Another data set concerns S. aureus ATCC 43300. The format is cell-based, Staphylococcus aureus.
Source text: as §1

Another data set relates to S. aureus ATCC 29213. Format: cell-based, Staphylococcus aureus.
Source text: as §1

The subject of data set [4] is Escherichia coli ATCC 25922. The format is cell-based.
In data set [5] the test system is Acinetobacter baumannii ATCC 19606. The format is cell-based.
For data set [6], the system named is methicillin-resistant S. aureus ATCC 43300. Format: cell-based, Staphylococcus aureus.
Protocol: (§3) The minimum inhibitory concentration (MIC) of paenipeptin analogues was determined using the broth microdilution method (Wirker, M. A. Methods for Dilution Antimicrobial Susceptibility Tests for Bacteria that Grow Aerobically: Approved Standard M07-A8; Clinical and Laboratory Standards Institute, Wayne, Pa., 2009). Seven reference strains (Acinetobacter baumannii ATCC 19606, Escherichia coli ATCC 25922, Klebsiella pneumoniae ATCC 13883, Pseudomonas aeruginosa ATCC 27853, Enterococcus faecium ATCC 19434, Staphylococcus aureus ATCC 29213 and methicillin-resistant S. aureus ATCC 43300) were subjected to MIC testing.
(§4) Paenipeptin analogues were two-fold diluted in tryptic soy broth (TSB; Becton Dickinson) and mixed with an equal volume of bacterial suspensions in TSB containing approximately 1.5×10^5 colony-forming units (CFU)/mL in a clear UV-sterilized 96-well microtiter plate (NBS, Corning Inc., Corning, N.Y.). […] The microtiter plate was incubated at 37° C. for 18-20 h.
Data set [7] deals with Klebsiella pneumoniae ATCC 13883. In words: MIC of antibiotics with or without paenipeptin analogues (potentiation). The following applies: K. pneumoniae ATCC 13883. The format is cell-based. The text has this:
(§2) Gram-negative bacteria, including Acinetobacter and Klebsiella, are intrinsically resistant to the hydrophobic antibiotic rifampicin.

Data set [8] concerns Acinetobacter baumannii ATCC 19606. The description is as above. The format is cell-based. To be noted: A. baumannii ATCC 19606.
Source text: as §2

Data set [9] concerns Escherichia coli ATCC 25922. The format is in vitro ADME. The method, then: To determine the stability of peptides in human serum, paenipeptin analogues were added into 100% human serum to a final concentration of 64 μg/ml. The mixtures were incubated at 37° C. and samples were withdrawn at 0, 6, 12 and 24 h. […] The residual antibacterial activity after incubation in human serum was compared to the non-treated control.

For a further data set, the system named is E. coli ATCC 25922. The format is cell-based, Escherichia coli. The following applies: ATCC 25922. The method, then:
The impact of human serum on the antibacterial activity of selected paenipeptin analogues was determined using a procedure similar to that used for MIC determination as described above except that the microbiological medium was replaced by human serum (MP Biomedicals, Solon, Ohio). Paenipeptin analogues were two-fold diluted in 100% human serum and mixed with an equal volume of 90% serum containing approximately 1.5×10^5 CFU/mL of E. coli ATCC 25922 or S. aureus ATCC 29213. The final paenipeptin concentrations ranged from 0.5-64 μg/mL in 95% serum. The MIC in the presence of serum was then tested as described above.

The test system of data set [10] is Klebsiella pneumoniae ATCC 13883. Format: cell-based.
Protocol: as §3, §4
Where [11] appears, read: MIC without / with 4 μg/mL paenipeptin.

Read-outs that look alike come from different tables or passages of the source. Where a SMILES comes first, the peptide text is derived from it. [ ]: non-standard residue; d: D form. The star is where a group is joined. Heptanoyl = CCCCCCC(=O)*; Octanoyl = CCCCCCCC(=O)*; Dab = NCC[C@H](N)C(=O)O; Bz = O=C(c1ccccc1)* Bounds are passed on as bounds.

Consider `CCCCCCC(=O)N[C@@H](CCN)C(=O)N[C@H](C(=O)N[C@@H](CCN)C(=O)N[C@H](Cc1ccccc1)C(=O)N[C@@H](CC(C)C)C(=O)N[C@@H](CCN)C(=O)N[C@H](CC(C)C)C(=O)N[C@@H](CC(C)C)C(=O)N[C@@H](CO)C(N)=O)[C@@H](C)CC` [Analogue 5] (Heptanoyl-[Dab]I[Dab][dF]L[Dab][dL]LS-NH2), for which the MIC in data set [1] (ATCC 19434) was in the range of 8 to 16 µg/mL; in data set [2] (ATCC 27853) it was 2 to 4 µg/mL; in data set [3] (ATCC 29213) it was 16 to 32 µg/mL; in data set [4] (ATCC 25922), 1 to 4 µg/mL; in data set [5] (ATCC 19606), 8 to 16 µg/mL. Moreover, the Hemolysis with rabbit red blood cells (16 μg/mL) is recorded as 0.96 ± 0.59%; in the data set with rabbit red blood cells (32 μg/mL) it was 1.39 ± 0.55%; in the data set with rabbit red blood cells (64 μg/mL), 4.86 ± 1.05%; with rabbit red blood cells (128 μg/mL), 26.5 ± 4.45%. For the same molecule, the minimal bactericidal concentration (MBC) lay in the range of 8 to 16 µg/mL in the data set with P. aeruginosa ATCC 27853, 16 to 32 µg/mL in the data set with S. aureus ATCC 43300 and 16 to 32 µg/mL against S. aureus ATCC 29213. Also, the results for the Minimum inhibitory concentration in data set [3] (ATCC 29213) and in [4] (ATCC 25922) were 16 to 32 µg/mL and 1 to 4 µg/mL, respectively.
For `CCCCCCC(=O)N[C@@H](CCN)C(=O)N[C@@H](Cc1ccccc1)C(=O)N[C@@H](CCN)C(=O)N[C@H](Cc1ccccc1)C(=O)N[C@@H](CC(C)C)C(=O)N[C@@H](CCN)C(=O)N[C@H](CC(C)C)C(=O)N[C@@H](CC(C)C)C(=O)N[C@@H](CO)C(N)=O` [Analogue 6] (Heptanoyl-[Dab]F[Dab][dF]L[Dab][dL]LS-NH2), the MIC was 2 to 4 µg/mL in data set [2] (ATCC 27853), 16 to 32 µg/mL in data set [3] (ATCC 29213), 16 to 32 µg/mL in data set [6] (ATCC 43300) and 1 to 4 µg/mL in data set [4] (ATCC 25922). Further, the Hemolysis in the data set with rabbit red blood cells (16 μg/mL) was 0.14 ± 0.20%; with rabbit red blood cells (32 μg/mL) it was 0.39 ± 0.30%; in the data set on rabbit red blood cells (64 μg/mL) it was 2.03 ± 0.44%; with rabbit red blood cells (128 μg/mL) it was 8.34 ± 1.80%. Besides, the MBC was 8 to 16 µg/mL against P. aeruginosa ATCC 27853 and 16 to 32 µg/mL with S. aureus ATCC 29213. In addition, the Minimum inhibitory concentration in data set [3] (ATCC 29213) was in the range of 16 to 32 µg/mL; in data set [4] (ATCC 25922), 1 to 4 µg/mL.
`CCCCCCCC(=O)N[C@@H](CCN)C(=O)N[C@H](C(=O)N[C@@H](CCN)C(=O)N[C@H](Cc1ccccc1)C(=O)N[C@@H](CC(C)C)C(=O)N[C@@H](CCN)C(=O)N[C@@H](C(=O)N[C@@H](CC(C)C)C(=O)N[C@@H](CCN)C(N)=O)C(C)C)[C@@H](C)CC` [Analogue 9] (Octanoyl-[Dab]I[Dab][dF]L[Dab][dV]L[Dab]-NH2): the results for the “MIC of ampicillin in the presence of […] μg/ml paenipeptin analogue” value in data set [7] and in data set [8] were 32 μg/ml and 1-2 μg/ml, respectively. The “MIC of clarithromycin in the presence of […] μg/ml paenipeptin analogue” value in [7] amounted to 0.0156 μg/ml. In addition, the figures for the “MIC of erythromycin in the presence of […] μg/ml paenipeptin analogue” value in data set [7] and in data set [8] were 0.0625 μg/ml and 0.125-0.25 μg/ml, respectively. The “MIC of rifampicin at 4 μg/mL of paenipeptin analogue” value in data set [7] is recorded as <0.00098-0.00195 μg/ml; in data set [8] it was 0.00195 μg/ml. Moreover, the “MIC of vancomycin in the presence of […] μg/ml paenipeptin analogue” value in data set [7] is listed as 16 μg/ml; in data set [8], 0.25-0.5 μg/ml. Besides, the “Sensitization factor (clarithromycin)” value is recorded as 2,048 in [7] (4 μg/mL paenipeptin) and 4,096-8,192 in [8] (4 μg/mL paenipeptin). The “MIC of rifampicin at 2 μg/mL of paenipeptin analogue” value in data set [8] stood at 0.0019 μg/ml. The “Sensitization factor (erythromycin)” value in data set [8] (4 μg/mL paenipeptin) was 128-256. Further, the MIC in data set [2] (ATCC 27853) is 2 to 4 µg/mL; in [3] (ATCC 29213), more than 32 µg/mL; in [10] (ATCC 13883), more than 32 µg/mL; in data set [4] (ATCC 25922) it was 4 to 16 µg/mL; in [5] (ATCC 19606), not below 32 µg/mL. The “MIC after incubation in human serum at 37° C.” value in data set [9] (ATCC 25922, 0 h) fell in the range of 1 to 2 µg/mL; in data set [9] (ATCC 25922, 12 h), 1 to 2 µg/mL. For the same molecule, the Hemolysis in the data set on rabbit red blood cells (16 μg/mL) is on record as 0.52 ± 0.58%; in the data set on rabbit red blood cells (32 μg/mL), 0.80 ± 0.68%; in the data set with rabbit red blood cells (64 μg/mL), 0.73 ± 0.50%; with rabbit red blood cells (128 μg/mL) it was 2.25 ± 2.18%. Besides, the “hemolytic activity (in words)” value in the data set with rabbit red blood cells (128 μg/mL) is recorded as “non-hemolytic”. Also, the Minimum inhibitory concentration is 2 to 4 µg/mL in the data set with E. coli ATCC 25922, more than 32 µg/mL in data set [3] (ATCC 29213) and 4 to 16 µg/mL in [4] (ATCC 25922).
Consider `CC[C@H](C)[C@H](NC(=O)[C@H](CCN)NC(=O)c1ccccc1)C(=O)N[C@@H](CCN)C(=O)N[C@H](Cc1ccccc1)C(=O)N[C@@H](CC(C)C)C(=O)N[C@@H](CCN)C(=O)N[C@@H](C(=O)N[C@@H](CC(C)C)C(=O)N[C@@H](CO)C(N)=O)C(C)C` [Analogue 14] (Bz-[Dab]I[Dab][dF]L[Dab][dV]LS-NH2), for which the “MIC of rifampicin at 2 μg/mL of paenipeptin analogue” value in data set [7] stood at 0.0078 μg/ml; in data set [8] it was 0.03125 μg/ml. For the same molecule, in data set [7], the “MIC of rifampicin at 4 μg/mL of paenipeptin analogue” value was 0.00195-0.0039 μg/ml. Moreover, the “Sensitization factor (rifampicin)” value in data set [7] (setting [11]) is 4,096-8,192; in data set [8] (setting [11]), 2,048-4,096. Besides, the minimal inhibitory concentration (MIC) was more than 32 µg/mL in data set [1] (E. faecium ATCC 19434, TSB); 8 to 32 µg/mL in data set [2] (P. aeruginosa ATCC 27853, TSB); more than 32 µg/mL in data set [3] (S. aureus ATCC 29213, TSB); more than 32 µg/mL in data set [10] (K. pneumoniae ATCC 13883, TSB); more than 32 µg/mL in [6] (S. aureus ATCC 43300, TSB); 16 to 32 µg/mL in [4] (E. coli ATCC 25922, TSB). This molecule also showed a minimal inhibitory concentration (MIC) in [5] (A. baumannii ATCC 19606, TSB) of more than 32 µg/mL. Besides, the Hemolysis with rabbit red blood cells (16 μg/mL) turned out to be 0.22 ± 0.17%; with rabbit red blood cells (32 μg/mL), 0.71 ± 0.82%; with rabbit red blood cells (64 μg/mL), 1.14 ± 1.05%; in the data set on rabbit red blood cells (128 μg/mL), 0.70 ± 0.34%.

One may read the MIC as the lowest concentration that inhibits growth of the organism. High values mean a less susceptible organism, low ones a more susceptible organism. As usually defined, the MBC is the smallest concentration meeting the test's criterion for killing. High values mean less potent killing, low ones more potent killing.

Source of the values: patent US11364275B2, “Linear lipopeptide paenipeptins and methods of using the same” (priority 2017, dated 2022).
